# Reference: PubChem BioAssay AID248 (DTP/NCI, 2004)
# Inconclusive results and toxic doses are left out.
# Tested on: L1210 leukemia ip in BDF1 mice, survival T/C
# Test: NCI In Vivo Anticancer Drug Screen. Data for tumor model L1210 Leukemia (intraperitoneal) in B6D2F1 (BDF1) mice
# Details: endpoint: mean survival time, higher = longer survival
# Procedure, shortened: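 Antitumor effect is assessed in tumor-bearing animals. Survival in the compound arm is compared with a vehicle-dosed control arm and expressed as their quotient.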
# [1] = dose: 100.0 mg/kg/injection, schedule: Q04DX003 (ip), vehicle: Klucel (hydroxypropylcellulose) (HPC)
# [2] = dose: 200.0 mg/kg/injection, schedule: Q04DX003 (ip), vehicle: Klucel (hydroxypropylcellulose) (HPC)
# [3] = dose: 400.0 mg/kg/injection, schedule: Q04DX003 (ip), vehicle: Klucel (hydroxypropylcellulose) (HPC)
# [4] = dose: 75.0 mg/kg/injection, schedule: Q01DX009 (ip), vehicle: Klucel (hydroxypropylcellulose) (HPC)
# [5] = dose: 100.0 mg/kg/injection, schedule: Q01DX001 (ip), vehicle: carboxymethylcellulose (CMC)
# [6] = dose: 200.0 mg/kg/injection, schedule: Q01DX001 (ip), vehicle: carboxymethylcellulose (CMC)
# [7] = dose: 400.0 mg/kg/injection, schedule: Q01DX001 (ip), vehicle: carboxymethylcellulose (CMC)
# [8] = dose: 100.0 mg/kg/injection, schedule: Q04DX003 (ip), vehicle: saline with Tween-80
# [9] = dose: 200.0 mg/kg/injection, schedule: Q04DX003 (ip), vehicle: saline with Tween-80
# [10] = dose: 400.0 mg/kg/injection, schedule: Q04DX003 (ip), vehicle: saline with Tween-80
# [11] = dose: 100.0 mg/kg/injection, schedule: Q01DX009 (ip), vehicle: Klucel (hydroxypropylcellulose) (HPC)
# [12] = dose: 200.0 mg/kg/injection, schedule: Q01DX009 (ip), vehicle: Klucel (hydroxypropylcellulose) (HPC)
# [13] = dose: 400.0 mg/kg/injection, schedule: Q01DX009 (ip), vehicle: Klucel (hydroxypropylcellulose) (HPC)
compound,measurement,setting,value
Cc1ccc(NC(=O)Oc2cc(=O)oc3ccccc23)c([N+](=O)[O-])c1,T/C,[1],89 % of control
same,T/C,[2],94 % of control
same,T/C,[3],96 % of control
O=S(=O)(O)Cc1ccc(Cl)cc1Cl,T/C,"dose: 100.0 mg/kg/injection, schedule: Q04DX002 (ip), vehicle: saline",95 % of control
same,T/C,"dose: 200.0 mg/kg/injection, schedule: Q04DX002 (ip), vehicle: saline",103 % of control
same,T/C,"dose: 400.0 mg/kg/injection, schedule: Q04DX002 (ip), vehicle: saline",116 % of control
O=C(NC1CCCCC1)c1ccc(C(=O)NC2CCCCC2)cc1,T/C,"dose: 100.0 mg/kg/injection, schedule: Q04DX002 (ip), vehicle: Klucel (hydroxypropylcellulose) (HPC)",94 % of control
same,T/C,"dose: 200.0 mg/kg/injection, schedule: Q04DX002 (ip), vehicle: Klucel (hydroxypropylcellulose) (HPC)",102 % of control
same,T/C,"dose: 400.0 mg/kg/injection, schedule: Q04DX002 (ip), vehicle: Klucel (hydroxypropylcellulose) (HPC)",91 % of control
O=C(Nc1ccc(NC(=O)OCc2ccccc2)c(Cl)c1)OCc1ccccc1,T/C,"dose: 75.0 mg/kg/injection, schedule: Q01DX001 (ip), vehicle: Klucel (hydroxypropylcellulose) (HPC)",93 % of control
same,T/C,[4],92 % of control
same,T/C,"dose: 150.0 mg/kg/injection, schedule: Q01DX001 (ip), vehicle: Klucel (hydroxypropylcellulose) (HPC)",95 % of control
same,T/C,"dose: 150.0 mg/kg/injection, schedule: Q01DX009 (ip), vehicle: Klucel (hydroxypropylcellulose) (HPC)",94 % of control
same,T/C,"dose: 300.0 mg/kg/injection, schedule: Q01DX001 (ip), vehicle: Klucel (hydroxypropylcellulose) (HPC)",95 % of control
same,T/C,"dose: 300.0 mg/kg/injection, schedule: Q01DX009 (ip), vehicle: Klucel (hydroxypropylcellulose) (HPC)",94 % of control
O=C(Nc1ccc(S(=O)(=O)c2ccc(NC(=O)C(F)(F)N3CCOCC3)cc2)cc1)C(F)(F)N1CCOCC1,T/C,[5],103 % of control
same,T/C,[6],97 % of control
same,T/C,[7],103 % of control
Cc1cc(Cl)ccc1NC(=O)c1ccc([N+](=O)[O-])cc1,T/C,"dose: 100.0 mg/kg/injection, schedule: Q01DX009 (ip), vehicle: saline with Tween-80",92 % of control
same,T/C,[8],92 % of control
same,T/C,"dose: 200.0 mg/kg/injection, schedule: Q01DX009 (ip), vehicle: saline with Tween-80",86 % of control
same,T/C,[9],93 % of control
same,T/C,[10],92 % of control
Nc1cccc2cn[nH]c12,T/C,"dose: 100.0 mg/kg/injection, schedule: Q01DX009 (ip), vehicle: other",104 % of control
same,T/C,"dose: 200.0 mg/kg/injection, schedule: Q01DX009 (ip), vehicle: other",112 % of control
CSc1cc(C(=O)Nc2ccc(C3=NCCN3)cc2)cc(C(=O)Nc2ccc(C3=NCCN3)cc2)c1,T/C,"dose: 2.75 mg/kg/injection, schedule: Q01DX Z (ip), vehicle: carboxymethylcellulose (CMC)",110 % of control
same,T/C,"dose: 5.5 mg/kg/injection, schedule: Q01DX Z (ip), vehicle: carboxymethylcellulose (CMC)",102 % of control
same,T/C,"dose: 11.0 mg/kg/injection, schedule: Q01DX Z (ip), vehicle: carboxymethylcellulose (CMC)",96 % of control
same,T/C,"dose: 22.0 mg/kg/injection, schedule: Q01DX Z (ip), vehicle: carboxymethylcellulose (CMC)",119 % of control
same,T/C,"dose: 31.0 mg/kg/injection, schedule: Q01DX Z (ip), vehicle: carboxymethylcellulose (CMC)",225 % of control
same,T/C,"dose: 45.0 mg/kg/injection, schedule: Q01DX Z (ip), vehicle: carboxymethylcellulose (CMC)",174 % of control
same,T/C,"dose: 62.0 mg/kg/injection, schedule: Q01DX Z (ip), vehicle: carboxymethylcellulose (CMC)",242 % of control
same,T/C,"dose: 90.0 mg/kg/injection, schedule: Q01DX Z (ip), vehicle: carboxymethylcellulose (CMC)",168 % of control
same,T/C,"dose: 125.0 mg/kg/injection, schedule: Q01DX Z (ip), vehicle: carboxymethylcellulose (CMC)",165 % of control
same,T/C,"dose: 180.0 mg/kg/injection, schedule: Q01DX Z (ip), vehicle: carboxymethylcellulose (CMC)",256 % of control
same,T/C,"dose: 250.0 mg/kg/injection, schedule: Q01DX Z (ip), vehicle: carboxymethylcellulose (CMC)",157 % of control
same,T/C,"dose: 360.0 mg/kg/injection, schedule: Q01DX Z (ip), vehicle: carboxymethylcellulose (CMC)",100 % of control
CC(=O)N(C)C(C(=O)N1CC(C)CC1C(=O)N(C)C1C(=O)NC(CC(C)C)C(=O)N2CC(C)CC2C(=O)NC(CC(C)C)C(=O)N(C)C(C(C)C)C(=O)N2CCCC2C(=O)N(C)C(CC(C)C)C(=O)NCC(=O)OC1C)C(C)C (configuration not stated),T/C,"dose: 18.75 mg/kg/injection, schedule: Q01DX009 (ip), vehicle: Klucel (hydroxypropylcellulose) (HPC)",104 % of control
same,T/C,"dose: 37.5 mg/kg/injection, schedule: Q01DX009 (ip), vehicle: Klucel (hydroxypropylcellulose) (HPC)",109 % of control
same,T/C,[4],101 % of control
CC(=O)Nc1ccc(S(=O)(=O)Nc2ccc(F)cc2)cc1,T/C,[11],96 % of control
same,T/C,[12],98 % of control
same,T/C,[13],102 % of control
CCOC(=O)Nc1ccc(NC(C)=O)cc1,T/C,[11],104 % of control
same,T/C,[12],98 % of control
same,T/C,[13],93 % of control
Cc1c2[n+](cc3ccccc13)C(C)CC(=O)N2 (configuration not stated),T/C,"dose: 18.75 mg/kg/injection, schedule: Q01DX009 (ip), vehicle: saline",95 % of control
same,T/C,"dose: 37.5 mg/kg/injection, schedule: Q01DX009 (ip), vehicle: saline",95 % of control
same,T/C,"dose: 37.5 mg/kg/injection, schedule: Q04DX003 (ip), vehicle: saline",97 % of control
same,T/C,"dose: 75.0 mg/kg/injection, schedule: Q01DX001 (ip), vehicle: saline",100 % of control
same,T/C,"dose: 75.0 mg/kg/injection, schedule: Q01DX009 (ip), vehicle: saline",94 % of control
same,T/C,"dose: 75.0 mg/kg/injection, schedule: Q04DX003 (ip), vehicle: saline",101 % of control
same,T/C,"dose: 150.0 mg/kg/injection, schedule: Q01DX001 (ip), vehicle: saline",94 % of control
same,T/C,"dose: 150.0 mg/kg/injection, schedule: Q04DX003 (ip), vehicle: saline",104 % of control
COC(=O)c1cc(C)cc(NS(=O)(=O)c2ccc(C)cc2)c1C,T/C,"dose: 50.0 mg/kg/injection, schedule: Q01DX001 (ip), vehicle: carboxymethylcellulose (CMC)",89 % of control
same,T/C,[5],86 % of control
same,T/C,[6],94 % of control
same,T/C,[7],89 % of control
COc1cc(C)c(O)c(C)c1C,T/C,[8],95 % of control
same,T/C,[9],95 % of control
same,T/C,[10],95 % of control
CCCC(C(=O)c1ccc(OC)cc1)C(O)(C(F)(F)F)C(F)(F)F (configuration not stated),T/C,[1],91 % of control
same,T/C,[2],98 % of control
same,T/C,[3],100 % of control
CC(=O)c1ccc(Nc2ccnc3cc(Cl)ccc23)cc1,T/C,"dose: 75.0 mg/kg/injection, schedule: Q01DX001 (ip), vehicle: other",109 % of control
same,T/C,"dose: 150.0 mg/kg/injection, schedule: Q01DX001 (ip), vehicle: other",96 % of control
same,T/C,"dose: 300.0 mg/kg/injection, schedule: Q01DX001 (ip), vehicle: other",91 % of control
O=[N+]([O-])c1ccccc1N=Nc1c(O)[nH]c2ccc(Br)cc12,T/C,"dose: 100.0 mg/kg/injection, schedule: Q01DX001 (ip), vehicle: saline",98 % of control
same,T/C,"dose: 200.0 mg/kg/injection, schedule: Q01DX001 (ip), vehicle: saline",101 % of control
same,T/C,"dose: 400.0 mg/kg/injection, schedule: Q01DX001 (ip), vehicle: saline",113 % of control
CN1CCC(OC(=O)N(c2ccccc2)c2ccccc2)CC1,T/C,"dose: 100.0 mg/kg/injection, schedule: Q01DX001 (ip), vehicle: saline with Tween-80",99 % of control
same,T/C,"dose: 200.0 mg/kg/injection, schedule: Q01DX001 (ip), vehicle: saline with Tween-80",105 % of control
CC(c1ccccc1)C1N(c2ccccc2)CCN1c1ccccc1 (configuration not stated),T/C,[1],94 % of control
same,T/C,[2],100 % of control
same,T/C,[3],102 % of control
CC(=O)OC1C=CN(C(C)=O)C(SC(C)(C)C)C1OC(C)=O (configuration not stated),T/C,[11],101 % of control
same,T/C,[12],106 % of control
same,T/C,[13],100 % of control
CN(C)CCN1c2ccccc2Sc2ccccc21,T/C,"dose: 12.5 mg/kg/injection, schedule: Q04DX003 (ip), vehicle: saline",97 % of control
same,T/C,"dose: 25.0 mg/kg/injection, schedule: Q04DX003 (ip), vehicle: saline",108 % of control
same,T/C,"dose: 50.0 mg/kg/injection, schedule: Q04DX003 (ip), vehicle: saline",103 % of control
same,T/C,"dose: 100.0 mg/kg/injection, schedule: Q04DX003 (ip), vehicle: saline",101 % of control
